# Measured values reported in US20230065158A1, “OXABICYCLOHEPTANES FOR TREATMENT OF SMALL CELL LUNG CANCER” (Lixte Biotechnology, Inc., priority 2021, published 2023).
# “Also recorded” adds a separate entry of the source.
# Legend:
# advanced solid tumors = settings: cited from earlier work
# H69 cells = test: BiOLOG Phenotype Microarray carbon substrate utilization; type: cell-based; settings: LB100 20 μM overnight
# Description: FIGS. 4A-4F depict a reactome pathway analysis of PamGene PTKs and STKs after LB-100 treatment of H524 cells and Biolog phenotype MicroArray. […] Table includes 10 carbon sources affected by LB-100 (n=3). […] P<0.001 (***) for control (untreated cells) vs. LB-100. FIG. 4D: Amplex Red Glucose/Oxidase assay kit was used to measure glucose level in cell culture media. […] Glucose concentration detected in initial medium and counted as 100%. Subtracting final medium level of glucose from initial glucose medium concentration yielded % glucose in the medium with cells (n=3). Effect of LB-100 on MET phosphorylation. FIG. 4E: H524 and H69 cells were treated overnight with LB-100 (H524—5 μM and H69—20 μM) following by stimulation with 100 ng/ml HGF in 10 min. Cells were collected and lysed for WB analysis with pMET and total MET antibody. Pan-actin was used as loading control (n=3). FIG. 4F: H524 cell lysates (control, LB-100, carboplatin and combination (LB-100/carboplatin) were analyzed by western blots to check phosphorylation status of MET at Ser985 and Tyr1234/1235. Actin was used as a loading control (n=3). […]
# Phenotype Microarrays (PMs) use a patented redox chemistry, employing cell respiration as a universal reporter. […] The redox assay provides for both amplification and precise quantitation of phenotypes. […]
# PP2A = target: T1, PP2A (Homo sapiens, UniProt P67775); test: PP2A immunoprecipitation Ser/Thr phosphatase activity assay in treated H524 cells; type: cell-based; settings: LB-100 5 μM, 24 h, H524 cells
# T1 construct: endogenous in cells; host or cells: H524 (human SCLC) cells
# Protocol: FIGS. 1A-IL depict the effects of LB-100 on PP2A-A expression in SCLC tumors and cells. […] A Mann-Whitney U test was used for comparison between the normal and SCLC samples. FIG. 1B: IHC for PP2A was conducted on TMA tissue sections and images were captured at 4× or 20× using a 3D-Histech PANNORAMIC SCAN whole slide scanner (3D-Histech, Budapest, Hungary). […] TMAs were scored in normal (n=24) and tumor (n=79) cores on a scale from 0 (no staining/no protein expression) to 3+(strong staining/high protein expression). FIG. 1C: Summary bar graph of the average PP2A subunit staining. IHC staining intensity of normal and tumor cores. There was a statistically significant difference between normal and tumor tissue (p<0.001). FIG. 1D: In order to compare the expression of PP2A subunits A and C, cell lysates from seven SCLC cell lines and HBEC 3KT (non-malignant cell line) were subjected to western blotting. FIG. 1E: PP2A activity was determined using a serine/threonine phosphatase activity assay (Millipore) after 24 h exposure to cantharidin (10 μM) and LB-100 (5 μM). […] LB-100 alone or in combination with carboplatin inhibited proliferation and colony formation in SCLC cells. The Cell Counting Kit-8 assay detected cell H524 and H69 cell viability. […] FIGS. 1I-1K: Graphs depict the mean+SEM of percent viability for cells (n=3). […]
# T1 sequence (P67775 whole entry): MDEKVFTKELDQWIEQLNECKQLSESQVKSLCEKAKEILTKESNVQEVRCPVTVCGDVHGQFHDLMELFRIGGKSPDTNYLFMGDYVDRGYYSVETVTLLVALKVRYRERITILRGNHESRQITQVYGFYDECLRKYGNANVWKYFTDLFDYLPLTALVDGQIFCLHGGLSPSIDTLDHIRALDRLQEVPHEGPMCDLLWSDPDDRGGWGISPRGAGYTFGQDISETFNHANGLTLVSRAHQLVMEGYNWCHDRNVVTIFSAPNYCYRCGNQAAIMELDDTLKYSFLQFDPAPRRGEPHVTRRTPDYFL
# T1 sequence (P30153 whole entry partner): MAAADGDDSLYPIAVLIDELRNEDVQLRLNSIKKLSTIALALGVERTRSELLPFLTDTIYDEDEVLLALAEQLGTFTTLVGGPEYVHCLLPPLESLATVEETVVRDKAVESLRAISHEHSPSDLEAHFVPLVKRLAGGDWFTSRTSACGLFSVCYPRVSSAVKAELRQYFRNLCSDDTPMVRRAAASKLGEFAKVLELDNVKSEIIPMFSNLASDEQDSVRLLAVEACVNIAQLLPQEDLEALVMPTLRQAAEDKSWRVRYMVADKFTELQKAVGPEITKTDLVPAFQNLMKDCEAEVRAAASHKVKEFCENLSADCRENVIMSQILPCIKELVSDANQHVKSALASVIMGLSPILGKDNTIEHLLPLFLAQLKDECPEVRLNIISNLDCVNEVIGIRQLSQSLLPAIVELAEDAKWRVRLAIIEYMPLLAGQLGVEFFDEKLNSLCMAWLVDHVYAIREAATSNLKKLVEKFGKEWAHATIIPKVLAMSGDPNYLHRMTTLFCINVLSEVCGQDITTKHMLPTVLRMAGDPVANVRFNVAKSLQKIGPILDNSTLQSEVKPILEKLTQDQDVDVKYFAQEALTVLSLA
compound,measurement,setting,value
"C[NH+]1CCN(C(=O)C2C(C(=O)O)[C@H]3CC[C@@H]2O3)CC1 (stereo in doubt) [LB-100, 3-[(4-Methylpiperazin-1-yl)carbonyl]-7-oxabicyclo[2.2.1]heptane-2-carboxylic acid]",tolerability / adverse events,advanced solid tumors; Phase I trial,no notable adverse events; also recorded: well tolerated
same,patients who achieved stable disease,"advanced solid tumors; Phase I, advanced solid tumors",10 out of 20
same,reduction of glycogen consumption,H69 cells,more than 2.7 fold
same,reduction of α-D-Glucose consumption,H69 cells,more than 6 fold
same,phosphatase activity inhibited to,PP2A,65%
